In general, IC50 refers to the concentration at which inhibition is half-maximal.

Molecules are shown by their SMILES. Where a name gives a salt, the structure may show the parent alone.

This experiment addresses IMPDH (human type II) (Homo sapiens, UniProt P12268). In words: IMPDH inhibitor assay, spectrophotometric (NADH formation at 340 nm). Conditions: 37° C., pH8.0, 2.5% DMSO, 10 concentrations of inhibitor. It counts as biochemical. On the procedure:
IMPDH activity can be assayed using an adaptation of the method reported by Carr [S. Carr et al., J. Biol. Chem. 268, p.27286 (1993)], the disclosure of which is herein incorporated by reference. IMPDH activity was measured spectrophotometrically, by monitoring the increase in absorbance at 340 nm due to the formation of NADH (ε340 is 6220 M−1 cm−1) from the reduction of NAD. The IMPDH reaction mixture contained 0.1M Tris pH8.0, 0.1M KCl, 1 mM DTT, 3 mM EDTA, […]. The reaction was initiated by the addition of IMPDH (human type II) to a final concentration in the assay of between 1 nM and 5 nM with respect to the IMPDH tetramer. The initial rate is measured by following the linear increase in absorbance at 340 nm at 37° C. for 45 minutes. The reading was conducted using a Spectromax 190 (Molecular Devices) spectrophotometer in a 96 well plate format with a final reaction volume of 200 μl.
For inhibitor assay analysis, the compound is dissolved in DMSO to a final concentration of 10 mM and added to the initial reaction mixture as 5 μl to give final DMSO concentration of 2.5%. The enzyme reaction is initiated by the addition of IMPDH and the initial rates measured as above. IC50 determinations are made by measuring the initial rates in the presence of 10 concentrations of inhibitor and fitting the data using the 4 parameter curve fit from the Softmax pro software (Molecular Devices).
On to `COc1cc(NC(=O)C(=O)Nc2cccc(CNC(=O)OC(C)C)c2)ccc1-c1cnco1` [Isopropyl [3-[[[3-methoxy-4-(5-oxazolyl)anilino]oxalyl]amino]benzyl]carbamate], for which 33 nM corresponded to half-maximal inhibition (IC50). Compound `COC(=O)NCc1cccc(NC(=O)C(=O)Nc2ccc(-c3cnco3)c(OC)c2)c1` [Methyl [3-[[[3-methoxy-4-(5-oxazolyl)anilino]oxalyl]amino]benzyl] carbamate] returned an IC50 of 121 nM. Take `COc1cc(NC(=O)C(=O)NC(C)(C)Cc2ccccc2)ccc1-c1cnco1` [N-(1,1-Dimethyl-2-phenylethyl)-N′-[3-methoxy-4-(5-oxazolyl)phenyl]oxalamide]: inhibition was half-maximal at 15 nM (IC50). For `C#CC(C)(C)NC(=O)C(=O)Nc1ccc(-c2cnco2)c(OC)c1` [N-(1,1-Dimethylpropargyl)-N′-[3-methoxy-4-(5-oxazolyl)phenyl]oxalamide], 48 nM corresponded to half-maximal inhibition (IC50).

For the compound `CCC(C)(C)NC(=O)C(=O)Nc1ccc(-c2cnco2)c(OC)c1` [N-(1,1-Dimethylpropyl)-N′-[3-methoxy-4-(5-oxazolyl)phenyl]oxalamide], the IC50 was found to be 31 nM. `COc1cc(NC(=O)C(=O)NC(C)(C)CN)ccc1-c1cnco1` [N-(2-Amino-1,1-dimethylethyl)-N′-[3-methoxy-4-(5-oxazolyl)kphenyl]oxalamide trifluoroacetate (1:1)] gave a concentration for half-maximal inhibition (IC50) of 97 nM. For `COc1cc(NC(=O)C(=O)NC(C)(C)CN(C)C)ccc1-c1cnco1` [N-(2-Dimethylamino-1,1-dimethylethyl)-N′-[3-methoxy-4-(5-oxazolyl)phenyl]oxalamide hydrochloride (1:1)], the IC50 was 170 nM. `COc1cc(NC(=O)C(=O)NC(C)(C)CO)ccc1-c1cnco1` [N-(2-Hydroxy-1,1-dimethylethyl)-N′-[3-methoxy-4-(5-oxazolyl)phenyl]oxalamide] came in with an IC50 of 72 nM. The compound `COc1cc(NC(=O)C(=O)Nc2cccc(CN)c2)ccc1-c1cnco1` [N-[3-(Aminomethyl)phenyl]-N′-[3-methoxy-4-(5-oxazolyl)phenyl]oxalamide trifluoroacetate (1:1)] gave an IC50 of 233 nM.

In the case of `COc1cc(NC(=O)C(=O)Nc2cccc(CNC(=O)c3ccccc3)c2)ccc1-c1cnco1` [N-[3-(Benzamidomethyl)phenyl]-N′-[3-methoxy-4-(5-oxazolyl)phenyl]oxalamide], half-maximal inhibition (IC50) was put at 13 nM.

Compound `COc1cc(NC(=O)C(=O)NC(C)(C)CC(C)(C)C)ccc1-c1cnco1` [N-[3-Methoxy-4-(5-oxazolyl)phenyl]-N′-(1,1,3,3-tetramethyl-butyl)oxalamide] yielded an IC50 of 34 nM. The compound `COc1cc(NC(=O)C(=O)NC(C)(C)c2ccccc2)ccc1-c1cnco1` [N-[3-Methoxy-4-(5-oxazolyl)phenyl]-N′-(1-methyl-1-phenylethyl)oxalamide] registered an IC50 of 30 nM. The compound `COc1cc(NC(=O)C(=O)Nc2cccnc2)ccc1-c1cnco1` [N-[3-Methoxy-4-(5-oxazolyl)phenyl]-N′-(3-pyridyl)oxalamide] registered a 50% inhibitory concentration (IC50) of 277 nM. Against the preceding compound, the IC50 is about 9.2-fold higher. The compound `COc1cc(NC(=O)C(=O)NC(C)(C)Cc2ccc([N+](=O)[O-])cc2)ccc1-c1cnco1` [N-[3-Methoxy-4-(5-oxazolyl)phenyl]-N′-[1,1-dimethyl-2-(4-nitrophenyl)ethyl]oxalamide] gave a half-inhibitory concentration (IC50) of 10 nM.

`CNC(=O)C(C)(C)NC(=O)C(=O)Nc1ccc(-c2cnco2)c(OC)c1` [N-[3-Methoxy-4-(5-oxazolyl)phenyl]-N′-[1-methyl-1-(methylcarbamoyl)ethyl]oxalamide] had a 50% inhibitory concentration (IC50) of 199 nM. Consider `COc1cc(NC(=O)C(=O)Nc2cccc(CC(=O)Nc3ccccc3)c2)ccc1-c1cnco1` [N-[3-Methoxy-4-(5-oxazolyl)phenyl]-N′-[3-[(phenylcarbamoyl)methyl]phenyl]oxalamide], for which the 50% inhibitory concentration (IC50) amounted to 35 nM. Against the preceding compound, the IC50 is about 5.7-fold lower. `COc1cc(NC(=O)C(=O)Nc2cccc(CNS(=O)(=O)c3ccccc3)c2)ccc1-c1cnco1` [N-[3-[(Benzenesulfonamido)methyl]phenyl]-N′-[3-methoxy-4-(5-oxazolyl)phenyl]oxalamide] had an IC50 of 125 nM. `CC(C)(C)NC(=O)C(=O)Nc1ccc(-c2cnco2)c(Cl)c1` [N-tert-Butyl-N′-[3-chloro-4-(5-oxazolyl)phenyl]oxalamide]: the half-maximal inhibitory concentration (IC50) is 169 nM. The figure for `COc1cc(NC(=O)C(=O)NC(C)(C)C)ccc1-c1cocn1` [N-tert-Butyl-N′-[3-methoxy-4-(4-oxazolyl)phenyl]oxalamide] is 460 nM; for `COc1cc(NC(=O)C(=O)NC(C)(C)C)ccc1-c1cnco1` [N-tert-Butyl-N′-[3-methoxy-4-(5-oxazolyl)phenyl]oxalamide] it is 37 nM.

As to `COc1cc(NC(=O)C(=O)Nc2cccc(CNC(=O)Oc3ccccc3)c2)ccc1-c1cnco1` [Phenyl [3-[[[4-(5-oxazolyl)anilino]oxalyl]amino]benzyl]carbamate], the midpoint of inhibition, the IC50, lay at 11 nM.

`COc1cc(NC(=O)C(=O)Nc2cccc(CNC(=O)O[C@H]3CCOC3)c2)ccc1-c1cnco1` [[3-[[[3-Methoxy-4-(5-oxazolyl)anilino]oxalyl]amino]benzyl]carbamic acid tetrahydro-3(S)-furyl ester] had an IC50 of 44 nM. In turn, `COc1cc(NC(=O)C(=O)NC(C)(C)CNC(=O)OC(C)(C)C)ccc1-c1cnco1` [tert-Butyl [2-[[[3-methoxy-4-(5-oxazolyl)anilino]oxalyl]amino]-2-methylpropyl]carbamate] came in with an IC50 of 75 nM. The compound `COc1cc(NC(=O)C(=O)Nc2cccc(CNC(=O)OC(C)(C)C)c2)ccc1-c1cnco1` [tert-Butyl [3-[[[3-methoxy-4-(5-oxazolyl)anilino]oxalyl]amino]benzyl]carbamate] yielded an IC50 of 36 nM.
